Values quoted from earlier work as cited in US20250215053A1, “LYSINE RICH CELL-PENETRATING PEPTIDES” (OXFORD UNIVERSITY INNOVATION LIMITED, priority 2022, published 2025).

Test system: dystrophin
Conditions: in vivo

eteplirsen
dystrophin restoration: approximately 1 % of normal dystrophin levels
